In patent US20250042922A1, “KRAS MODULATING COMPOUNDS” (priority 2023, published 2025):

Experiments:
[1] = system: cellular pERK in Kuramochi (WT KRAS) cells; experiment: Cell based pERK assay, Kuramochi; conditions: Kuramochi (WT KRAS), 2 hours incubation, HTRF phospho-ERK1/2; read-out: Kuramochi pERK EC50
Description: (§1) Compounds were tested in a 384-well assay format for their ability to inhibit cellular pERK in Kuramochi (WT KRAS), MIA-PaCa-2 (KRAS-G12C), ASPC-1 (KRAS G12D), and NCI-H441 (KRAS-G12V) cell-lines. Compounds were serially diluted (1:3) in DMSO. On day −1, 80 μL of cells were plated per well in the 384 well tissue-culture plates (Greiner: Cat #781080) to seed 5000 cells per wells of AsPC-1 or 7500 cells of MIA-PaCa-2, NCI-H441, and Kuramochi cell lines in RPMI (Corning: Cat #10-040-CM) with 10% fetal bovine serum (FBS) (HyClone: Cat #SH30071-03) and 1× penicillin-streptomycin-glutamate (PSG) (Corning: Cat #30-009-CI) for […] and Kuramochi cell lines and DMEM (Corning: Cat #15-018-CM) with 10% FBS and 1×PSG for MIA-PaCa-2 cell line. The plates were then incubated overnight at 37° C. and 5% CO2. On day 0, 400 nL of compound/well was added into the cell plates and mixed 5 times by pipetting using a Beckmann Biomek FX. The cell plates were then incubated for 2 hours at 37° C. and 5% CO2. HTRF Advanced Phospho-ERK1/2 (THR202/TYR204) Detection Kits (PerkinElmer: Cat #64AERPEG) were used to prepare the lysis and detection solution according to manufacturer protocol. Following the 2 hour incubation, 70 μL of medium was aspirated from the plates and 10 uL of lysis and detection solution was added to the plates using a Biotek EL406 washer and dispenser. Plates were sealed and stored overnight at room temperature. HTRF ratio (665 nm/615 nm) was read by Envision multimode reader (PerkinElmer) the next day. The TR-FRET ratios were normalized to a positive (saturating concentration of known inhibitor) and negative (DMSO) control and plotted against the log of compound concentration.

[2] = system: cellular pERK in MIA-PaCa-2 (KRAS-G12C) cells; experiment: Cell based pERK assay, MIA-PaCa-2; conditions: Homo sapiens; MIA-PaCa-2 (KRAS-G12C), 2 hours incubation, HTRF phospho-ERK1/2; read-out: MIAPaCa2 pERK EC50
Description: as §1

[3] = system: cellular pERK in NCI-H441 (KRAS-G12V) cells; experiment: Cell based pERK assay, NCI-H441; conditions: Homo sapiens; NCI-H441 (KRAS-G12V), 2 hours incubation, HTRF phospho-ERK1/2; read-out: H441 PERK EC50
Description: as §1

[4] = system: cellular pERK in ASPC-1 (KRAS G12D) cells; experiment: Cell based pERK assay, ASPC-1; conditions: Homo sapiens, ASPC1; ASPC-1 (KRAS G12D), 2 hours incubation, HTRF phospho-ERK1/2; read-out: AsPC1 pERK EC50
Description: as §1

| Compound | EC50 [1] [nM] | EC50 [2] [nM] | EC50 [3] [nM] | EC50 [4] [nM] |
| --- | --- | --- | --- | --- |
| C#Cc1c(F)ccc2cc(O)cc(-c3nc4c5c(nc(OC[C@@]67CCCN6C[C@H](F)C7)nc5c3F)N3C[C@@]5(F)CC[C@](F)(N5)[C@H]3CO4)c12 [Example 4-16, 5-ethynyl-6-fluoro-4-((5aR,6R,9S)-1,6,9-trifluoro-12-(((2R,7aS)-2-fluorotetrahydro-1H-pyrrolizin-7a(5H)-yl)methoxy)-5a,6,7,8,9,10-hexahydro-5H-4-oxa-3,10a,11,13,14-pentaaza-6,9-methanonaphtho[1,8-ab]heptalen-2-yl)naphthalen-2-ol] | 147 | 157 | > 770 | > 1000 |
| C#Cc1c(F)ccc2cc(N)cc(-c3nc4c5c(nc(OC[C@@]67CCCN6C[C@H](F)C7)nc5c3F)N3C[C@@]5(F)CC[C@](F)(N5)[C@@H]3CC4)c12 [Example 4-19, 5-ethynyl-6-fluoro-4-((5aS,6R,9S)-1,6,9-trifluoro-12-(((2R,7aS)-2-fluorotetrahydro-1H-pyrrolizin-7a(5H)-yl)methoxy)-4,5,5a,6,7,8,9,10-octahydro-3,10a,11,13,14-pentaaza-6,9-methanonaphtho[1,8-ab]heptalen-2-yl)naphthalen-2-amine] | 0.92 | 0.235 | 1.08 | 5.17 |
| C#Cc1c(F)ccc2cc(O)cc(-c3nc4c5c(nc(OC[C@@]67CCCN6C[C@H](F)C7)nc5c3F)N3C[C@@]5(F)CC[C@](F)(N5)[C@@H]3CC4)c12 [Example 4-20, 5-ethynyl-6-fluoro-4-((5aS,6R,9S)-1,6,9-trifluoro-12-(((2R,7aS)-2-fluorotetrahydro-1H-pyrrolizin-7a(5H)-yl)methoxy)-4,5,5a,6,7,8,9,10-octahydro-3,10a,11,13,14-pentaaza-6,9-methanonaphtho[1,8-ab]heptalen-2-yl)naphthalen-2-ol] | 1.8 | 0.081 | 0.616 | 0.735 |
| Oc1cc(-c2nc3c4c(nc(OCC56CCCN5CCC6)nc4c2F)N2C[C@@]4(F)CC[C@](F)(N4)[C@H]2CCC3)c2c(Cl)c(F)ccc2c1 [Example 4-27, 5-chloro-6-fluoro-4-((6aR,7R,10S)-1,7,10-trifluoro-13-((tetrahydro-1H-pyrrolizin-7a(5H)-yl)methoxy)-5,6,6a,7,8,9,10,11-octahydro-4H-3,11a,12,14,15-pentaaza-7,10-methanocyclohepta[4,5]cycloocta[1,2,3-de]naphthalen-2-yl)naphthalen-2-ol] | 2.58 | 3.03 | 13.8 | 64.3 |
| C#Cc1c(F)ccc2cc(N)cc(-c3nc4c5c(nc(OCC67CCCN6CCC7)nc5c3F)N3C[C@@]5(F)CC[C@](F)(N5)[C@@H]3CC4)c12 [Example 4-34, 5-ethynyl-6-fluoro-4-((5aS,6R,9S)-1,6,9-trifluoro-12-((tetrahydro-1H-pyrrolizin-7a(5H)-yl)methoxy)-4,5,5a,6,7,8,9,10-octahydro-3,10a,11,13,14-pentaaza-6,9-methanonaphtho[1,8-ab]heptalen-2-yl)naphthalen-2-amine] | 3.34 | 0.511 | 2.75 | 20.9 |
| C#Cc1c(F)c(F)cc2cc(N)cc(-c3nc4c5c(nc(OCC67CCCN6CCC7)nc5c3F)N3C[C@@]5(F)CC[C@](F)(N5)[C@@H]3CC4)c12 [Example 4-35, 5-ethynyl-6,7-difluoro-4-((5aS,6R,9S)-1,6,9-trifluoro-12-((tetrahydro-1H-pyrrolizin-7a(5H)-yl)methoxy)-4,5,5a,6,7,8,9,10-octahydro-3,10a,11,13,14-pentaaza-6,9-methanonaphtho[1,8-ab]heptalen-2-yl)naphthalen-2-amine] | 3.69 | 0.787 | 5.32 | 33.7 |
| C#Cc1c(F)ccc2cc(N)cc(-c3nc4c5c(nc(OC[C@@]67CCCN6CC(=C)C7)nc5c3F)N3C[C@@]5(F)CC[C@](F)(N5)[C@H]3CCC4)c12 [Example 4-38, 5-ethynyl-6-fluoro-4-((6aR,7R,10S)-1,7,10-trifluoro-13-(((S)-2-methylenetetrahydro-1H-pyrrolizin-7a(5H)-yl)methoxy)-5,6,6a,7,8,9,10,11-octahydro-4H-3,11a,12,14,15-pentaaza-7,10-methanocyclohepta[4,5]cycloocta[1,2,3-de]naphthalen-2-yl)naphthalen-2-amine] | 2.69 | 0.134 | 1.01 | 2.2 |
| C#Cc1c(F)ccc2cc(N)cc(-c3nc4c5c(nc(OC[C@@]67CCCN6CC(=C)C7)nc5c3F)N3C[C@@]5(F)CC[C@](F)(N5)[C@@H]3[C@@H](C)C4)c12 [Example 4-40, 5-ethynyl-6-fluoro-4-((5S,5aS,6R,9S)-1,6,9-trifluoro-5-methyl-12-(((S)-2-methylenetetrahydro-1H-pyrrolizin-7a(5H)-yl)methoxy)-4,5,5a,6,7,8,9,10-octahydro-3,10a,11,13,14-pentaaza-6,9-methanonaphtho[1,8-ab]heptalen-2-yl)naphthalen-2-amine] | 1.65 | 0.067 | 0.38 | 0.71 |
| Nc1cc(-c2nc3c4c(nc(OCC56CCCN5CCC6)nc4c2F)N2C[C@@]4(F)CC[C@](F)(N4)[C@H]2CCC3)c2c(F)c(F)ccc2c1 [Example 5-4, 5,6-difluoro-4-[(4S,7R,8R)-4,7,15-trifluoro-18-(1,2,3,5,6,7-hexahydropyrrolizin-8-ylmethoxy)-2,13,17,19,21-pentazapentacyclo[10.7.1.14,7.02,8.016,20]henicosa-1(19),12(20),13,15,17-pentaen-14-yl]naphthalen-2-amine] | 5.01 | 28.7 | 104 | 416 |
| CCc1c(F)ccc2cc(O)cc(-c3nc4c5c(nc(OCC67CCCN6CCC7)nc5c3F)N3C[C@@]5(F)CC[C@](F)(N5)[C@H]3CCC4)c12 [Example 6-1, 5-ethyl-6-fluoro-4-((6aR,7R,10S)-1,7,10-trifluoro-13-((tetrahydro-1H-pyrrolizin-7a(5H)-yl)methoxy)-5,6,6a,7,8,9,10,11-octahydro-4H-3,11a,12,14,15-pentaaza-7,10-methanocyclohepta[4,5]cycloocta[1,2,3-de]naphthalen-2-yl)naphthalen-2-ol] | 3.55 | 1.52 | 19.4 | 31.8 |
